Test results published in US12687780B2, “Curable water-based composition, active-energy-ray-curable water-based composition, active-energy-ray-curable water-based ink, stored container, two-dimensional or three-dimensional image forming apparatus, two-dimensional or three-dimensional image forming method, cured product, and decorated body” (Ricoh Company, Ltd., priority 2021, dated 2026).

test: Skin sensitivity: stimulation index (SI) value by the LLNA method (OECD test guideline 429); assay type: in vivo; settings: stimulation index of the single compound (raw material)

SI value | Structure (SMILES)
(see Synthesis example 6) SI = 1.37 | C=CC(=O)NC(C)C(=O)OC (stereo not shown) [Example A1-6, N-acryloyl alaninemethyl ester]
(see Synthesis example 7) SI = 1.00 | C=CC(=O)N(C)CC(=O)OC [Example A2-1, N-acryloyl-N-methyl glycine methyl ester]
SI = 1.23 | C=CC(=O)NCCNC(=O)C=C [Example B1-2]
(see Synthesis example 2) SI = 1.01 | C=CC(=O)NCC(=O)OC [Example A1-2, N-acryloylglycine methyl ester]
(see Synthesis example 10) SI = 1.70 | C=CC(=O)N1CCC(C(=O)OCC)CC1 [Example A2-5, ethyl N-acryloylpiperidine-4-carboxylate]
(see Synthesis example 3) SI = 1.21 | C=CC(=O)NCC(=O)OCC [Example A1-3, N-acryloylglycine ethyl ester]
(see Synthesis example 5) SI = 1.45 | C=CC(=O)NCCCC(=O)OC [Example A1-5, N-acryloyl-4-butyric acid methyl ester]

Structure (SMILES) | SI value
C=CC(=O)NCNC(=O)C=C [Example B1-1] | SI = 1.08
C=CC(=O)NCCN(CCN(CCNC(=O)CC)C(=O)C=C)C(=O)C=C [Example B1-4] | “FOM-03009” obtained from FUJIFILM Corporation SI = 1.52
C=CC(=O)NCCN(CCNC(=O)C=C)C(=O)C=C [Example B1-3] | “FOM-03007” obtained from FUJIFILM Corporation SI = 1.44
